From ChEMBL document CHEMBL1201862, “PubChem BioAssay data set” (2004) come the findings set out here.

Test systems include U-251; SF-539; SF-295; MDA-MB-435; RXF 393; OVCAR-4; SK-OV-3; MDA-N; SN12C; UACC-62; DU-145; MCF7; OVCAR-8; PC-3; CCRF-CEM; Malme-3M; SNB-19; NCI-H460; HCT-116; NCI-H23.
What all share (experiment): DTP human tumour cell line panel, 48 h

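Five concentrations, 48 hours, 96-well plates. GI50 is the concentration that inhibits growth by half.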 Active and inactive are the calls of the source. Cut-off read from the data, not from the text of the source: active = GI50 up to about 1.1 µM and inactive = higher. Some results are limits rather than exact numbers.

Broadly, the GI50 is the concentration that inhibits growth by half. For the compound `C=C(Br)C(C)(Br)CCC(Br)C(C)(C)Cl` (stereo not given), the GI50 in the test on U-251 is 16.2 µM (inactive); in the test on SF-539, 16.8 µM (inactive); with SF-295, 16.9 µM (inactive); in the test with MDA-MB-435, 19.4 µM (inactive); in the test on RXF 393 it was 20 µM (inactive); in the test on OVCAR-4, 18.9 µM (inactive). Besides, the GI50 in the test on SK-OV-3 was 27.8 µM (inactive); with MDA-N it was 19.2 µM (inactive); in the test with SN12C, 20.2 µM (inactive); in the test with UACC-62, 20.4 µM (inactive); in the test with DU-145, 21.5 µM (inactive); in the test with MCF7, 14.5 µM (inactive). Also, the GI50 in the test with OVCAR-8 was 17.8 µM (inactive); with PC-3, 20.4 µM (inactive); in the test on CCRF-CEM it was 2.96 µM (inactive); in the test on Malme-3M it was 20.1 µM (inactive); with SNB-19 it was 18.8 µM (inactive); with NCI-H460, 18.3 µM (inactive). For the same compound, the GI50 is 11.7 µM (inactive) in the test on HCT-116 and 16.3 µM (inactive) with NCI-H23.
As for `COc1cc(C=O)cc(/C=N/c2ccccn2)c1O`, the GI50 with U-251 was 13 µM (inactive); in the test on SF-539 it was 3.01 µM (inactive); with SF-295 it was 5.47 µM (inactive); in the test on MDA-MB-435 it was 9.29 µM (inactive); with RXF 393, 1.56 µM (inactive); with OVCAR-4, > 100 µM (inactive). Moreover, the GI50 with SK-OV-3 is 4.98 µM (inactive); with MDA-N, 7.23 µM (inactive); in the test with SN12C, 12.6 µM (inactive); in the test with UACC-62 it was 30 µM (inactive); with DU-145, > 100 µM (inactive); in the test on MCF7, 52.1 µM (inactive). The GI50 is 2.78 µM (inactive) in the test with OVCAR-8; 3.64 µM (inactive) with PC-3; 4.67 µM (inactive) with CCRF-CEM; 2.47 µM (inactive) in the test with Malme-3M; 17.4 µM (inactive) in the test on SNB-19; 19.5 µM (inactive) in the test on NCI-H460. Besides, the GI50 in the test on HCT-116 is 35.4 µM (inactive); with NCI-H23, > 100 µM (inactive).
Consider `Cc1nn(-c2ccccc2)c(C)c1/C=N/N=C1\S/C(=C\c2ccc(Cl)cc2)C(=O)N1c1ccccc1`, for which the GI50 was 10.9 µM (inactive) in the test with U-251; > 100 µM (inactive) with SF-539; > 100 µM (inactive) with SF-295; 32 µM (inactive) with MDA-MB-435; 12.6 µM (inactive) with RXF 393; 2.15 µM (inactive) in the test with OVCAR-4. The GI50 in the test with SK-OV-3 was > 100 µM (inactive); in the test with MDA-N, 62.5 µM (inactive); in the test on SN12C, > 100 µM (inactive); in the test with UACC-62, 16.8 µM (inactive); in the test with DU-145, > 100 µM (inactive); with MCF7 it was 17.3 µM (inactive). Besides, the GI50 is 40.3 µM (inactive) in the test with OVCAR-8; > 100 µM (inactive) in the test on PC-3; > 100 µM (inactive) in the test on CCRF-CEM; 28.1 µM (inactive) in the test with Malme-3M; 48.8 µM (inactive) in the test on SNB-19; > 100 µM (inactive) in the test with NCI-H460. Moreover, the GI50 was 9.48 µM (inactive) in the test with HCT-116 and 7.38 µM (inactive) in the test on NCI-H23.
As to `C[N+]1(C)C/C(=C\C=C\c2ccccc2)C(=O)/C(=C/C=C/c2ccccc2)C1`, the GI50 was 3.89 µM (inactive) with U-251; 7.55 µM (inactive) with SF-539; 23.8 µM (inactive) in the test on SF-295; 4.28 µM (inactive) in the test with MDA-MB-435; 21.5 µM (inactive) with RXF 393; 42.7 µM (inactive) in the test on OVCAR-4. The GI50 was 37.7 µM (inactive) in the test on SK-OV-3; 4.48 µM (inactive) in the test with MDA-N; 7.69 µM (inactive) with SN12C; 3.46 µM (inactive) with UACC-62; 17.2 µM (inactive) in the test with DU-145; 10.2 µM (inactive) in the test on MCF7. Besides, the GI50 is 14.5 µM (inactive) in the test on OVCAR-8; 10.4 µM (inactive) in the test on PC-3; 1.78 µM (inactive) with CCRF-CEM; 16 µM (inactive) in the test on Malme-3M; 6.08 µM (inactive) in the test on SNB-19; 17.1 µM (inactive) in the test with NCI-H460. Also, the GI50 in the test with HCT-116 was 9.48 µM (inactive); with NCI-H23, 9.71 µM (inactive).
As for `COc1ccc(NC(=O)N(C)CC2(O)CCC(C(C)(C)C)CC2)cc1` (stereo not given), the GI50 in the test with U-251 is > 100 µM (inactive); in the test on SF-539 it was > 100 µM (inactive); in the test with SF-295, 29 µM (inactive); in the test with MDA-MB-435 it was 57.1 µM (inactive); in the test with RXF 393, 24.8 µM (inactive); in the test on OVCAR-4, 66.2 µM (inactive). Also, the GI50 is 80.9 µM (inactive) with SK-OV-3; 55.1 µM (inactive) with MDA-N; > 100 µM (inactive) in the test with SN12C; 35.5 µM (inactive) in the test with UACC-62; > 100 µM (inactive) in the test on DU-145; 19.4 µM (inactive) in the test with MCF7. Moreover, the GI50 is 60.8 µM (inactive) in the test with OVCAR-8; 14.7 µM (inactive) with PC-3; 42.5 µM (inactive) in the test with CCRF-CEM; 24.8 µM (inactive) in the test with Malme-3M; > 100 µM (inactive) in the test on SNB-19; 59.6 µM (inactive) in the test with NCI-H460. Further, the values for the GI50 in the test on HCT-116 and with NCI-H23 were 83.4 µM (inactive) and 99.3 µM (inactive), respectively.
Turning to `Sc1nnc(SCc2ccccc2Cl)c2nc[nH]c12`, the GI50 in the test with U-251, in the test on SF-539, with SF-295, in the test on MDA-MB-435, in the test with RXF 393 and in the test with OVCAR-4 was > 100 µM (inactive) each time. For the same compound, the GI50 in the test with SK-OV-3, in the test on MDA-N, in the test with SN12C, in the test with UACC-62, in the test with DU-145 and in the test on MCF7 was > 100 µM (inactive) in each case. The GI50 in the test with OVCAR-8, with PC-3, with CCRF-CEM, with Malme-3M, in the test with SNB-19 and with NCI-H460 was > 100 µM (inactive) throughout. Moreover, the GI50 in the test with HCT-116 and with NCI-H23 was > 100 µM (inactive) each time.
Regarding `N=C(N)N/N=C/c1c(Cl)nc2sccn12`, the GI50 in the test with U-251 is 29.9 µM (inactive); with SF-539 it was 19.8 µM (inactive); with SF-295 it was 21.4 µM (inactive); in the test on MDA-MB-435 it was 36.1 µM (inactive); with RXF 393, 28.2 µM (inactive); with OVCAR-4, 19.2 µM (inactive). Also, the GI50 with SK-OV-3 is 60.1 µM (inactive); in the test with MDA-N, 30.1 µM (inactive); in the test with SN12C, 38.5 µM (inactive); with UACC-62, 31.8 µM (inactive); with DU-145, 44.4 µM (inactive); in the test with MCF7, 26.9 µM (inactive). Moreover, the GI50 is 50.4 µM (inactive) in the test with OVCAR-8; 30.4 µM (inactive) in the test on PC-3; 21.1 µM (inactive) with CCRF-CEM; 23.3 µM (inactive) in the test on Malme-3M; 35.8 µM (inactive) with SNB-19; 16.7 µM (inactive) in the test on NCI-H460. Besides, the GI50 was 15.3 µM (inactive) with HCT-116 and 46.6 µM (inactive) in the test with NCI-H23.
Regarding `O=C1C([N-]S(=O)(=O)c2ccccc2)=C([n+]2ccc(Cc3ccccc3)cc2)C(=O)c2ccccc21`, the GI50 was 1.85 µM (inactive) with U-251; 1.79 µM (inactive) in the test on SF-539; 1.79 µM (inactive) with SF-295; 0.18 µM (active) with MDA-MB-435; 2.31 µM (inactive) in the test on RXF 393; 1.56 µM (inactive) with OVCAR-4. Also, the GI50 is 6.12 µM (inactive) in the test with SK-OV-3; 0.191 µM (active) in the test with MDA-N; 1.7 µM (inactive) in the test with SN12C; 1.15 µM (inactive) in the test with UACC-62; 1.53 µM (inactive) with DU-145; 0.435 µM (active) in the test with MCF7. Besides, the GI50 in the test with OVCAR-8 was 2.04 µM (inactive); in the test with PC-3, 2.21 µM (inactive); with CCRF-CEM it was 29.7 µM (inactive); in the test with Malme-3M, 0.376 µM (active); with SNB-19, 1.71 µM (inactive); with NCI-H460, 0.535 µM (active). In addition, the concentration for 50% growth inhibition (GI50) was 0.91 µM (active) in the test on HCT-116 and 0.284 µM (active) in the test on NCI-H23.
